From patent US10597388B2, “Pyridazinone herbicides” (FMC CORPORATION, priority 2014, dated 2020)

Experiments:
Assay type in all cases: in vivo
[1] = tested on: buckwheat, wild (wild buckwheat, Polygonum convolvulus); assay: Test D controlled growth environment herbicide test, pre- and postemergence; conditions: for Buckwheat, Wild plant response rating / Plant response rating (scale of 0 to 100), Buckwheat, Wild: 31 g ai/ha
Excerpt: Seeds of plant species selected from bluegrass (annual bluegrass, Poa annua), blackgrass (Alopecurus myosuroides), Canada thistle (Cirsium arvense), canarygrass (Phalaris minor), chickweed (common chickweed, Stellaria media), geranium, cutleaf (cutleaf geranium, Geranium dissectum), galium (catchweed bedstraw, Galium aparine), bromegrass, downy (downy bromegrass, Bromus tectorum), field poppy (Papaver rhoeas), field violet (Viola arvensis), foxtail, green (green foxtail, Setaria viridis), deadnettle (henbit deadnettle, Lamium amplexicaule), ryegrass, Italian (Italian ryegrass, Lolium multiflorum), kochia (Kochia scoparia), lambsquarters (Chenopodium album), oilseed rape (Brassica napus), pigweed (Amaranthus retroflexus), chamomile (scentless chamomile, Matricaria inodora), Russian thistle (Salsola kali), speedwell (bird's-eye speedwell, Veronica persica), barley, spring (spring barley, Hordeum vulgare), wheat, spring (spring wheat, Triticum aestivum), buckwheat, wild (wild buckwheat, Polygonum convolvulus), mustard, wild (wild mustard, Sinapis arvensis), oat, wild (wild oat, Avena fatua), radish, wild (wild radish, Raphanus raphanistrum), windgrass (Apera spica-venti), barley, winter (winter barley, Hordeum vulgare), and wheat, winter (winter wheat, Triticum aestivum) were planted into a silt loam soil and treated preemergence with test chemicals formulated in a non-phytotoxic solvent mixture which included a surfactant.
At the same time, these species were planted in pots containing Redi-Earth® planting medium (Scotts Company, 14111 Scottslawn Road, Marysville, Ohio 43041) comprising spaghnum peat moss, vermiculite, wetting agent and starter nutrients and treated with postemergence applications of the test chemicals formulated in the same manner. Plants ranged in height from 2 to 18 cm (1- to 4-leaf stage). Treated plants and controls were maintained in a controlled growth environment for 14 to 21 d after which time all species were compared to controls and visually evaluated. Plant response ratings, summarized in Table D, are based on a scale of 0 to 100 where 0 is no effect and 100 is complete control. A dash (-) response means no test result.

[2] = tested on: horseweed (Conyza canadensis); assay: Test E greenhouse herbicide test, pre- and postemergence
In short: (§1)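 Seeds were sown in silt loam and sprayed preemergence with compound in a non-phytotoxic solvent mix containing surfactant; for postemergence, plants at 2 to 18 cm (1- to 4-leaf stage) in peat-based potting medium were sprayed with the same formulation. After 14 to 21 d in a greenhouse, injury was rated visually against controls (0–100).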

[3] = tested on: momingglory (Ipomoea coccinea); assay: as above; conditions: Preemergence
In short: as §1

soybean (Glycine max) = assay: as above
In short: as §1

[4] = tested on: goosegrass (Eleusine indica); assay: as above; conditions: Preemergence
In short: as §1

corn (Zea mays) = assay: as above
In short: as §1

[5] = tested on: nightshade (eastern black nightshade, Solanum ptycanthum); assay: as above; conditions: Preemergence
In short: as §1

[6] = tested on: pigweed, palmer (palmer pigweed, Amaranthus palmeri); assay: as above
In short: as §1

[7] = tested on: field bindweed (Convolvulus arvensis); assay: as above
In short: as §1

[8] = tested on: arrowleaf sida (Sida rhombifolia); assay: as above
In short: as §1

[9] = tested on: surinam grass (Brachiaria decumbens); assay: as above; conditions: Preemergence
In short: as §1

[10] = Postemergence, scale 0 to 100 (0 no effect, 100 complete control)
[11] = Postemergence, 125 g ai/ha, visual rating on scale 0 (no effect) to 100 (complete control), 14 to 21 d
[12] = Postemergence, 250 g ai/ha, scale 0 to 100 (0 no effect, 100 complete control)
[13] = Preemergence, 62 g ai/ha, scale 0 to 100 (0 no effect, 100 complete control)
[14] = Preemergence, 125 g ai/ha, scale 0 to 100 (0 no effect, 100 complete control)
[15] = Preemergence, 250 g ai/ha, scale 0 to 100 (0 no effect, 100 complete control)
[16] = postemergence, 62 g ai/ha, scale 0 to 100, 0 no effect, 100 complete control
[17] = 62 g ai/ha, Postemergence, scale 0 to 100 (0 no effect, 100 complete control)
[18] = 62 g ai/ha, Preemergence, scale 0 to 100 (0 no effect, 100 complete control)
[19] = 125 g ai/ha, Postemergence, scale 0 to 100 (0 no effect, 100 complete control)
[20] = 125 g ai/ha, Preemergence, scale 0 to 100 (0 no effect, 100 complete control)
[21] = 250 g ai/ha, Postemergence, scale 0 to 100 (0 no effect, 100 complete control)
[22] = Postemergence, 31 g ai/ha, visual, scale 0 no effect to 100 complete control
[23] = Preemergence, 31 g ai/ha, scale 0 to 100, 0 no effect, 100 complete control
[24] = Preemergence, 250 g ai/ha, visual, scale 0 no effect to 100 complete control
[25] = 62 g ai/ha, scale 0 to 100 (0 no effect, 100 complete control)
[26] = 125 g ai/ha, scale 0 to 100 (0 no effect, 100 complete control)
[27] = 31 g ai/ha, scale 0 to 100, 0 no effect, 100 complete control
[28] = 250 g ai/ha, visual, scale 0 no effect to 100 complete control

## COC(=O)Oc1c(C)nn(C)c(=O)c1-c1c(C)sc2c(C)cc(C)cc12 [Compound 81]
[1]; [10]
  Buckwheat, Wild plant response rating: 100
[1]; [11]
  Plant response rating, Buckwheat, Wild: 100
[1]; [12]
  Plant response rating, Buckwheat, Wild: 100
[1]; Preemergence
  Plant response rating (scale of 0 to 100), Buckwheat, Wild: 15
[1]; [13]
  Plant response rating, Buckwheat, Wild: 15
[1]; [14]
  Plant response rating, Buckwheat, Wild: 0
[1]; [15]
  Plant response rating, Buckwheat, Wild: 15
[1]; [16]
  Plant response rating, Buckwheat, Wild: 100
[2]; [17]
  Plant response rating, Horseweed: 75
[2]; [18]
  Plant response rating, Horseweed: 100
[2]; [19]
  Plant response rating, Horseweed: 65
[2]; [20]
  Plant response rating, Horseweed: 100
[2]; [21]
  Plant response rating, Horseweed: 85
[2]; [22]
  Plant response rating, Horseweed: 50
[2]; [23]
  Plant response rating, Horseweed: 90
[2]; [24]
  Plant response rating, Horseweed: 100
[3]; [25]
  Plant response rating, Morningglory: 85
[3]; [26]
  Plant response rating, Morningglory: 100
[3]; [27]
  Plant response rating, Morningglory: 60
[3]; [28]
  Plant response rating, Morningglory: 100
Soybean (Glycine max); [18]
  Plant response rating, Soybean: 0
Soybean (Glycine max); [19]
  Plant response rating, Soybean: 0
Soybean (Glycine max); [20]
  Plant response rating, Soybean: 0
Soybean (Glycine max); [21]
  Plant response rating, Soybean: 10
Soybean (Glycine max); [22]
  Plant response rating, Soybean: 0
Soybean (Glycine max); [23]
  Plant response rating, Soybean: 0
Soybean (Glycine max); [24]
  Plant response rating, Soybean: 0
[4]; [25]
  Plant response rating, Goosegrass: 40
[4]; [26]
  Plant response rating, Goosegrass: 70
[4]; [27]
  Plant response rating, Goosegrass: 20
[4]; [28]
  Plant response rating, Goosegrass: 80
Corn (Zea mays); [17]
  Plant response rating, Corn: 0
Corn (Zea mays); [18]
  Plant response rating, Corn: 0
Corn (Zea mays); [19]
  Plant response rating, Corn: 5
Corn (Zea mays); [20]
  Plant response rating, Corn: 0
Corn (Zea mays); [21]
  Plant response rating, Corn: 5
Corn (Zea mays); [22]
  Plant response rating, Corn: 0
Corn (Zea mays); [23]
  Plant response rating, Corn: 0
Corn (Zea mays); [24]
  Plant response rating, Corn: 0
[5]; [25]
  Plant response rating, Nightshade: 90
[5]; [26]
  Plant response rating, Nightshade: 100
[5]; [27]
  Plant response rating, Nightshade: 80
[5]; [28]
  Plant response rating, Nightshade: 98
[6]; [17]
  Plant response rating, Pigweed, Palmer: 20
[6]; [18]
  Plant response rating, Pigweed, Palmer: 75
[6]; [20]
  Plant response rating, Pigweed, Palmer: 75
[6]; [21]
  Plant response rating, Pigweed, Palmer: 50
[6]; [22]
  Plant response rating, Pigweed, Palmer: 30
[6]; [23]
  Plant response rating, Pigweed, Palmer: 35
[6]; [24]
  Plant response rating, Pigweed, Palmer: 100
[7]; [17]
  Plant response rating, Field Bindweed: 65
[7]; [18]
  Plant response rating, Field Bindweed: 0
[7]; [19]
  Plant response rating, Field Bindweed: 75
[7]; [20]
  Plant response rating, Field Bindweed: 75
[7]; [21]
  Plant response rating, Field Bindweed: 85
[7]; [22]
  Plant response rating, Field Bindweed: 60
[7]; [23]
  Plant response rating, Field Bindweed: 0
[7]; [24]
  Plant response rating, Field Bindweed: 100
[8]; [17]
  Plant response rating, Arrowleaf Sida: 40
[8]; [18]
  Plant response rating, Arrowleaf Sida: 60
[8]; [19]
  Plant response rating, Arrowleaf Sida: 30
[8]; [20]
  Plant response rating, Arrowleaf Sida: 70
[8]; [21]
  Plant response rating, Arrowleaf Sida: 60
[8]; [22]
  Plant response rating, Arrowleaf Sida: 40
[8]; [23]
  Plant response rating, Arrowleaf Sida: 40
[8]; [24]
  Plant response rating, Arrowleaf Sida: 70
[9]; [25]
  Plant response rating, Surinam Grass: 90
[9]; [26]
  Plant response rating, Surinam Grass: 95
[9]; [27]
  Plant response rating, Surinam Grass: 70
[9]; [28]
  Plant response rating, Surinam Grass: 95

## CCOC(=O)Oc1c(C)nn(C)c(=O)c1-c1c(C)sc2ccc(C)cc12 [Compound 82]
[1]; [10]
  Buckwheat, Wild plant response rating: 85
[1]; [11]
  Plant response rating, Buckwheat, Wild: 100
[1]; [12]
  Plant response rating, Buckwheat, Wild: 100
[1]; Preemergence
  Plant response rating (scale of 0 to 100), Buckwheat, Wild: 35
[1]; [13]
  Plant response rating, Buckwheat, Wild: 0
[1]; [14]
  Plant response rating, Buckwheat, Wild: 15
[1]; [15]
  Plant response rating, Buckwheat, Wild: 0
[1]; [16]
  Plant response rating, Buckwheat, Wild: 100
[2]; [17]
  Plant response rating, Horseweed: 70
[2]; [18]
  Plant response rating, Horseweed: 100
[2]; [19]
  Plant response rating, Horseweed: 75
[2]; [20]
  Plant response rating, Horseweed: 100
[2]; [21]
  Plant response rating, Horseweed: 80
[2]; [22]
  Plant response rating, Horseweed: 60
[2]; [23]
  Plant response rating, Horseweed: 90
[2]; [24]
  Plant response rating, Horseweed: 100
[3]; [25]
  Plant response rating, Morningglory: 80
[3]; [26]
  Plant response rating, Morningglory: 90
[3]; [27]
  Plant response rating, Morningglory: 70
[3]; [28]
  Plant response rating, Morningglory: 100
Soybean (Glycine max); [18]
  Plant response rating, Soybean: 0
Soybean (Glycine max); [19]
  Plant response rating, Soybean: 40
Soybean (Glycine max); [20]
  Plant response rating, Soybean: 0
Soybean (Glycine max); [21]
  Plant response rating, Soybean: 35
Soybean (Glycine max); [22]
  Plant response rating, Soybean: 10
Soybean (Glycine max); [23]
  Plant response rating, Soybean: 0
[4]; [25]
  Plant response rating, Goosegrass: 25
[4]; [26]
  Plant response rating, Goosegrass: 70
[4]; [27]
  Plant response rating, Goosegrass: 20
[4]; [28]
  Plant response rating, Goosegrass: 90
Corn (Zea mays); [17]
  Plant response rating, Corn: 0
Corn (Zea mays); [18]
  Plant response rating, Corn: 0
Corn (Zea mays); [19]
  Plant response rating, Corn: 0
Corn (Zea mays); [20]
  Plant response rating, Corn: 0
Corn (Zea mays); [21]
  Plant response rating, Corn: 0
Corn (Zea mays); [22]
  Plant response rating, Corn: 0
Corn (Zea mays); [23]
  Plant response rating, Corn: 0
Corn (Zea mays); [24]
  Plant response rating, Corn: 5
[5]; [25]
  Plant response rating, Nightshade: 98
[5]; [26]
  Plant response rating, Nightshade: 98
[5]; [27]
  Plant response rating, Nightshade: 90
[5]; [28]
  Plant response rating, Nightshade: 100
[6]; [17]
  Plant response rating, Pigweed, Palmer: 60
[6]; [18]
  Plant response rating, Pigweed, Palmer: 90
[6]; [19]
  Plant response rating, Pigweed, Palmer: 75
[6]; [20]
  Plant response rating, Pigweed, Palmer: 100
[6]; [21]
  Plant response rating, Pigweed, Palmer: 65
[6]; [22]
  Plant response rating, Pigweed, Palmer: 50
[6]; [23]
  Plant response rating, Pigweed, Palmer: 90
[6]; [24]
  Plant response rating, Pigweed, Palmer: 100
[7]; [17]
  Plant response rating, Field Bindweed: 80
[7]; [18]
  Plant response rating, Field Bindweed: 50
[7]; [19]
  Plant response rating, Field Bindweed: 95
[7]; [20]
  Plant response rating, Field Bindweed: 100
[7]; [21]
  Plant response rating, Field Bindweed: 85
[7]; [22]
  Plant response rating, Field Bindweed: 85
[7]; [23]
  Plant response rating, Field Bindweed: 65
[7]; [24]
  Plant response rating, Field Bindweed: 95
[8]; [17]
  Plant response rating, Arrowleaf Sida: 70
[8]; [18]
  Plant response rating, Arrowleaf Sida: 70
[8]; [19]
  Plant response rating, Arrowleaf Sida: 80
[8]; [20]
  Plant response rating, Arrowleaf Sida: 85
[8]; [21]
  Plant response rating, Arrowleaf Sida: 90
[8]; [22]
  Plant response rating, Arrowleaf Sida: 65
[8]; [23]
  Plant response rating, Arrowleaf Sida: 20
[8]; [24]
  Plant response rating, Arrowleaf Sida: 95
[9]; [25]
  Plant response rating, Surinam Grass: 65
[9]; [26]
  Plant response rating, Surinam Grass: 85
[9]; [27]
  Plant response rating, Surinam Grass: 35
[9]; [28]
  Plant response rating, Surinam Grass: 90
